Reference: patent US5482954A, “Signal transduction inhibitor triazole and diazole compounds” (priority 1994, dated 1996)

Columns and labels:
[1] = system: HT-29 human colon cancer cells; assay: Experimental pulmonary metastasis, tumor cells pretreated in vitro; format: in vivo, nude mice; settings: cells treated 10 μg/mL, 24 hr; day 28
Description: Compound 1 was also tested for efficacy against HT-29 human colon cancer cells. HT-29 tumor cells were incubated with compound 1, 10 μg/mL, or DMSO vehicle (0.05%) for 24 hr. After harvesting and washing, one million cells were injected into the lateral tail vein of nude mice. Animals were humanely sacrificed on day 28, the lungs were inflated and fixed, and the number of pulmonary metastases were then counted. Observations on the size of the metastases were also made.

[2] = system: SKBR human breast cancer cells; assay: AMF-stimulated cell motility; format: cell-based; settings: overnight exposure; data not shown
[3] = Side effects in phase I clinical study; format: in vivo, human; settings: oral, to date
Description: Seven patients with solid tumor metastasis are undergoing treatment via oral administration of compound 1 under the FDA approved phase I clinical study. […] PT# is patient number. Response is the sum of the products of bidirectional measurements.

[4] = Plasma levels in mice (HPLC); format: in vivo, nude mice; settings: oral
Description: Murine data: A cohort of nude mice were inoculated with A2058 cells and treated with compound 1 at rates of 100 mg/kg/d and 250 mg/kg/qod. These animals were sacrificed humanely at 4 day intervals beginning 18 hr after oral administration of 1. Plasma was collected and frozen until evaluation by HPLC. Plasma samples were precipitated with 10% trichloroacetic acid and extracted with methylene chloride. The organic extract was evaporated to dryness under a stream of nitrogen, reconstituted and chromatographed by HPLC using an isocratic elution of 70% methanol in 0.1 M ammonium acetate (pH 6.5) on a C-18 analytical column. The lower level of sensitivity of this method is 20 ng/mL. The levels of compound 1 in plasma ranged from 1-5 μg/mL in the 100 mg/kg/d cohort and from 5-10 μg/mL in the 250 mg/kg/qod group. These plasma levels are in the range determined to be biologically significant in the inhibition of signal transduction.

Structure (SMILES): NC(=O)c1nnn(Cc2cc(Cl)c(C(=O)c3ccc(Cl)cc3)c(Cl)c2)c1N [Compound 1]
- inhibition of pulmonary colonization [1]: 96%
- size of pulmonary metastases [1]: marked reduction in size
- motile response to AMF [2]: inhibited
- abnormalities of blood cellular composition [3]: no abnormalities of blood cellular composition
- bone marrow depression (white cell counts) [3]: do not show any bone marrow depression
- liver or kidney function abnormalities [3]: do not show any liver or kidney function abnormalities
- neurological toxicity, hair loss or electrolyte imbalances [3]: no neurological toxicity, hair loss or electrolyte imbalances
- level in plasma ([4]; 100 mg/kg/d): 1000 to 5000 ng/mL
- level in plasma ([4]; 250 mg/kg/qod): 5000 to 10000 ng/mL
